Measured values reported in US10328148B2, “Protein drug formulations and packages” (Purdue Research Foundation, priority 2010, dated 2019).

Experiments:
[1] = system: human IgG; assay: Screening of peptides immobilized on POROS-Aldehyde resin for binding of IgG; details: for Affinity for IgG: immobilized peptides from proteolytic digests; for Selectivity of IgG binding: immobilized peptide, IgG from human plasma
From the text: Identifying Peptide Epitopes with Affinity for IgG. Peptide epitopes with high affinity for IgG may be derived readily from combinatorial libraries and proteolytic digests of protein mixtures. Proteolytic digests of Protein G were immobilized on POROS-Aldehyde resin by Schiff base coupling at their N-termini and the peptides screened for their ability to bind IgG from human plasma. […] In all, four peptides showing high affinity for IgG were isolated from protein G digests by this method. Similar peptides with high affinity for human IgG were also isolated and characterized from cytochrome c ([…]) (SEQ ID NO: 6) and mouse anti-human polyclonal IgG digests ([…]) (SEQ ID NO: 7) using this method. […] Without being bound by theory, it is believed herein that because ethylene glycol assists elution, some hydrophobic effects may also be involved.

[2] = system: IgG; assay: HP-SEC of IgG with free Protein A or Protein G: complex formation and agitation-induced aggregation; assay type: physicochemical; details: IgG:Protein A or G ratio 1:4, RT 2 h
Method: Effect of proteins A and G on aggregation of IgG. High performance size exclusion chromatography (HP-SEC) is used to verify that IgG binds with Protein A or Protein G completely. 50 µL aliquots are injected to a Tosoh TSK G 13000 SWXL Gel 3000 column ([…]×7.8 mm) and separated at a flow rate of 0.5 mL/min. The mobile phase contains 50 mM potassium phosphate and 100 mM K2SO4 at pH 7.1. The relative percentage of IgG monomer and dimer are calculated in triplicate as a percentage of the total chromatographic peak area at 280 nm. Fresh IgG is incubated with free Protein A or free Protein G, respectively, at IgG:Protein A or G ratio of 1:4 at RT for 2 h before being subjected to agitation. […] Effect of agitation of protein A and protein G complexes of IgG. The prior Example 1 is repeated, subjecting the IgG+Protein A or IgG+Protein G to agitation on a shaker at room temperature for 44 h.

Substance	Affinity for IgG [1]	Selectivity of IgG binding [1]	other results
CAQCHTVEK (listed as Staphylococcus aureus) [peptide isolated from cytochrome c digest]	high affinity	–	–
GAQGHVVEK (listed as Staphylococcus aureus) [peptide isolated from mouse anti-human polyclonal IgG digests]	high affinity	–	–
Protein A: free Protein A, immunoglobulin-binding protein used as polyamino acid ligand	–	–	Complex formation with IgG by HP-SEC [2]: formation of IgG-Protein A and IgG-Protein G complexes
TVTEKPEV (listed as Staphylococcus aureus) [peptide from proteolytic digest of Protein G]	–	comparable to Protein A	Binding constant for human IgG ([1]; by HPLC methods): ~1e+06 M⁻¹
TVTEKVIDASELTPAVT (listed as Staphylococcus aureus) [peptide from proteolytic digest of Protein G]	–	comparable to Protein A	–
